Experimental data: patent US20200181284A1, “EPIGENETIC INHIBITORS FOR SENSITIZING HEMATOLOGIC OR OTHER MALIGNANCIES TO GLUCOCORTICOID THERAPY” (UNIVERSITY OF SOUTHERN CALIFORNIA, priority 2017, published 2020)

Legend:
[1] = test system: G9a and GLP coactivator function with GR; assay: Transient MMTV-LUC luciferase reporter gene assay in CV-1 cells (GR, GRIP1, G9a or GLP); format: cell-based, human
Experimental: CV-1 cells were plated in hormone-free medium with 5% charcoal-stripped serum in 24-well plates the day before transfection. Cells were transfected using Lipofectamine 2000 (Invitrogen) with the indicated plasmids according to the manufacturer's protocol. After transfection, the cells were grown in hormone-free medium for 48 h in the presence or absence of 100 nM dex. Cell lysis and luciferase assays on cell extracts were performed with Promega luciferase assay kit. An aliquot of the cell lysate was reserved for immunoblot analysis of input samples. The results were normalized as indicated and presented as the mean±SEM of at least four independent experiments.
The results as shown in FIGS. 20A-20D generally highlight that G9a and GLP PTMs regulate their coactivator function. For FIG. 20A, CV-1 cells were transfected with MMTV-LUC reporter plasmid (200 ng) and plasmids encoding GR (1 ng), Grip1 (100 ng) and HA-labeled full length (FL) hG9a wild type or K185A or K185R mutants (150 or 400 ng) as indicated. Cells were grown with 100 nM dex or the equivalent amount of ethanol for 48 h and assayed for luciferase activity. Relative luciferase units are normalized to sample 3 and represent mean±SEM for eight independent experiments. p-value was calculated using a paired t-test. *p≤0.05, **p≤0.01. Whole-cell extracts were analyzed for G9a expression by immunoblot with anti-HA antibody. For FIG. 20B, transient reporter gene assays were performed as in A with HA-labeled hGLP WT or hGLP K205A (150 or 400 ng) as indicated. Relative luciferase units are normalized to sample 3 and represent mean±SEM for six independent experiments. p-value was calculated using a paired t-test. *p≤0.05. […] Relative luciferase units are normalized to sample 3 and represent mean±SEM for four independent experiments. p-value was calculated using a paired t-test. * * *p≤0.001. […] Relative luciferase units are normalized to sample 3 and represent mean±SEM for four independent experiments. p-value was calculated using a paired t-test. *p≤0.05. […]

NALM6 cells = assay: Cell death assay (Presto Blue, 72 h) with dex plus inhibitor; format: cell-based, human
Experimental: Cells were plated in CellStar low evaporation lid 96-well round-bottom plate at a density of 100,000 cells/ml. Directly after plating, cells were treated in triplicate with serial dilutions of dexamethasone or vehicle control (0.1% ethanol). After 72 h, cell viability of each well was analyzed in duplicate using the Presto Blue Assay Reagent (Life Technologies). Fluorescence was measured and data were analyzed with Prism6 software.
FIGS. 40A, 40B, 40C, 40D-1, 40D-2, 40D-3, and 40D-4 show Aurora kinase B inhibitors sensitizing NALM6 cells to GC-induced cell death. As shown in FIGS. 40A and 40B, NALM6 cells were treated with the indicated dex concentration in addition to 0.75 μM ZM447439 (FIG. 40A), 16 nM AZD2811 (FIG. 40B), or equivalent volume of vehicle DMSO for 72 h, and cell survival was measured by a fluorescence metabolic assay. In each condition, the value measured with dex was normalized to the fluorescence value measured with ethanol. Percentage of survival is shown as the mean±SEM of 4 independent experiments and p-values for individual dex concentrations were calculated using a paired t-test. *p≤0.05, **p≤0.01, * * *p≤0.001. F-test comparing the two curves: p≤0.001. Insets show the EC50s that were calculated as the concentration at which half the cells remained alive, compare to vehicle controls. Error bars depict the SEM of 4 independent experiments and p-values were calculated to compare AURKB inhibitor treatment to DMSO using a paired t-test ** p≤0.01, * * *p≤0.001. […] The indicated proteins were then examined by immunoblot. As shown in FIGS. 40D-1, 40D-2, 40D-3, and 40D-4, NALM6 cells pre-treated with AZD2811 (16 nM) or DMSO for 24 h, were then treated for 8 h with 100 nM dex or ethanol. mRNA levels for the indicated GR target genes were measured by RT-qPCR and normalized to β-actin mRNA levels.
FIGS. 48A, 48B, 48C, 48D, 48E, and 48F show the effect of AURKB inhibitors on EHMT2 phosphorylation and dex-induced cell death. […] In each condition, the value measured with dex was normalized to the fluorescence value measured with ethanol. Percentage of survival is shown as the mean±SEM of 4 independent experiments and p-values for individual dex concentrations were calculated using a paired t-test. *p≤0.05, **p≤0.01, * * *p≤0.001. F-test comparing the two curves: p≤0.001. EC50s were calculated as the concentration at which half the cells remained alive, compare to vehicle controls. Error bars depict the SEM of 4 independent experiments and p-value was calculated to compare ZM treatment to DMSO using a paired t-test **p≤0.01, * * *p≤0.001. […] EC50s were calculated as the concentration at which half the cells remained alive, compare to vehicle controls. Error bars depict the SEM of 4 independent experiments and p-value was calculated to compare alisertib treatment to DMSO using a paired t-test. […] (E-F) RCH-ACV cells were treated with the indicated dex concentration in addition to 0.75 μM ZM447439 (FIG. 48E), 16 nM AZD2811 (FIG. 48F), or DMSO for 72 h, and cell survival was measured by a fluorescence metabolic assay. In each condition, the value measured with dex was normalized to the fluorescence value measured with ethanol. Percentage of survival is shown as the mean±SEM of 5 individual experiments and the p-value for each dex concentration was calculated using a paired t-test. *p≤0.05, **p≤0.01, * * *p≤0.001. F-test comparing the two curves: p≤0.001.
FIGS. 55A, 55B, and 55C show JIB-04 enhances GC-induced death of B-ALL cell line NALM6.

| Structure (SMILES) | dex-induced expression of the reporter gene ([1]; GR, GRIP1 and wild type G9a) | dex-induced expression of the reporter gene ([1]; mutant G9a with the methylation site mutated from lysine to arginine) | GC-induced death of NALM6 cells (NALM6 cells; 72 hours with various dex concentrations plus KDM inhibitor) | coactivator function of G9a and GLP, in cooperation with GRIP1 ([1]; 100 nM dex and 2 μM ZM447439, 48 h) | sensitivity of NALM6 cells to dex-induced apoptosis (NALM6 cells; 0.75 µM ZM447439 stronger effect than 0.625 μM, 72 h) |
| --- | --- | --- | --- | --- | --- |
| Clc1ccc(N/N=C(\c2ccccc2)c2ccccn2)nc1 [JIB-04, 5-chloro-N-[(E)-[phenyl(pyridin-2-yl)methylidene]amino]pyridin-2-amine] | enhanced | no effect | effectively enhanced | – | – |
| COc1cc2c(Nc3ccc(NC(=O)c4ccccc4)cc3)ncnc2cc1OCCCN1CCOCC1 [ZM447439, N-[4-[[6-methoxy-7-(3-morpholin-4-ylpropoxy)quinazolin-4-yl]amino]phenyl]benzamide] | – | – | – | significantly enhanced | significantly sensitized |
